Source: US20220017833A1, “Methods and Compositions for Scavenging Sulfides from Hydrocarbon Fluids and Aqueous Streams” (Nexgen Oilfield Chemicals, LLC, priority 2019, published 2022)

Legend:
[1] = octanol-water partition logarithm; source not stated; cited from earlier work
[2] = Solution Homogeneity Test; format: physicochemical; details: Table 6, GID, water and alcohols, % composition
From the text: In one aspect, as two-phase reaction products are problematic, scavenger system homogeneity is desired. The two phases could be emulsified or otherwise finely dispersed, but in practice, even fine, seemingly stable dispersions eventually separate or stratify in extended storage or critical use and are not robust enough for practical use. They are not allowed, for example, to be fed through capillaries for fear of plugging them. In this pass/fail test, a sample is held up for visual inspection in a backlit clear vial. A clear, single-phase, homogeneous solution is a pass. Anything else is a fail.

[3] = Short Reaction Time Capacity Test; details: for contribution to the BT capacity (coefficient of best fit equation) / contribution to the FD capacity (coefficient of best fit equation): Short Reaction Time Capacity Test, Table 2 compositions
From the text: (§1) Referring now to FIG. 1, therein is schematically depicted a sulfide scavenger testing system 100 comprising a gas source 2, a flow regulator 4, gas treatment vessel 6, and a sulfide measurement device 8. In one testing embodiment, gas (not shown) is flowed from gas source 2 via gas feed piping 10 into flow regulator 4, which regulates gas flow to gas treatment vessel 6 via regulated gas feed piping 12. The regulated gas flows into gas treatment vessel 6 via a bottom inlet 14 thereof, where it comes into contact with a volume of liquid 16 comprising a sulfide scavenger system (not separately labeled). The gas, having been treated by the liquid, flows out of a top end 18 of gas treatment vessel 6 and flows into sulfide measurement device 8 via treated gas outlet piping 20.
In one embodiment, gas flow from the flow regulator 4 is controlled such that the gas is flowed into the gas treatment vessel 6 at a flow rate of 100 mL/min. up to 500 mL/min. In one embodiment, a gas sparging device, such as a fine pore frit (not shown), is utilized to better distribute the gas into the scavenger liquid. In one embodiment, the gas treatment vessel 6 contains about 20 g of a liquid H2S scavenger, such as one or more diaminols/diaminacetals in a chemical system as described above. In one aspect, to the extent possible, H2S and/or CO2 are scavenged from the gas by the scavenger and the treated (“sweet”) gas exits top end 18 of treatment vessel 6. In one embodiment, sulfide measurement device 8 monitors the concentration of H2S leaving treatment vessel 6. in the gas phase. In other embodiments (not shown), a CO2 measurement device may be similarly employed to monitor the concentration of CO2 leaving treatment vessel 6 in the gas phase.
(§2) In one embodiment, gas is flowed through sulfide scavenger testing system 100 until the outlet H2S concentration reaches a 4,000 ppm target, at which point the test is concluded. This relative time duration before the target is reached is used to compare H2S scavenger capacity given the kinetics of each sulfide scavenger system. The longer the duration, the better the capacity.
(§3) The fine bubbles produced rise slowly, providing plenty of time, plenty of surface area, and a short path through which the H2S must diffuse to the scavenger in the liquid 16. Detector 8 on the outlet line 20 is used to measure H2S concentration in the exiting gas. The times to first detection (FD), at a threshold of 15 ppm, and to complete breakthrough (BT), at the detector saturation of 4000 ppm (0.4%), are recorded. This test is designed to measure the effective scavenging capacity in applications with long contact times.
This test is the same as the Long Reaction Time Capacity Test, but without the gas sparging device, so as to produce larger bubbles, and at a higher feed rate of 200 mL/min, after the first 8 minutes at 100 mL/min. The larger bubbles rise quickly through the liquid 16, providing little time, little surface area, and a long path through which the H2S must diffuse to the scavenger in the liquid. This test is designed to measure the effective scavenging capacity in applications with short contact times. It is far more reaction rate dependent than the Long Reaction Time Capacity and so is a more critical and differentiating test.
With triazine, one H2S reacts twice with the same molecule of triazine, replacing one amine, so the rate is “first order”, meaning proportional to the concentration of triazine.

[4] = Long Reaction Time Capacity Test
From the text: as §1
In one embodiment, the gas contained in gas source 2 consists substantially of about 15% H2S, and about 3% CO2, with the remainder being Methane. In one embodiment, gas flow from the flow regulator 4 is controlled such that the gas is flowed into the gas treatment vessel 6 at a flow rate of 100 mL/min. up to 500 mL/min. In one embodiment, a gas sparging device, such as a fine pore frit (not shown), is utilized to better distribute the gas into the scavenger liquid. In one embodiment, the gas treatment vessel 6 contains about 20 g of a liquid H2S scavenger, such as one or more diaminols/diaminacetals in a chemical system as described above. In one aspect, to the extent possible, H2S and/or CO2 are scavenged from the gas by the scavenger and the treated (“sweet”) gas exits top end 18 of treatment vessel 6. In one embodiment, sulfide measurement device 8 monitors the concentration of H2S leaving treatment vessel 6. in the gas phase. In other embodiments (not shown), a CO2 measurement device may be similarly employed to monitor the concentration of CO2 leaving treatment vessel 6 in the gas phase.
as §2
as §3, with “In this test, methane containing 15% H2S and 3% CO2 by weight is sparged via a fine pore frit (not shown) at 100 mL/min through a column of 20 g of scavenger solution (See FIG. 1). The fine” for “The fine”
Note that the true total capacity of a scavenger with infinite time to react is simply equal to the stoichiometry of the reaction—the moles of H2S consumable per mole of scavenging molecule, which can be calculated. This Long Reaction Time Capacity measurement falls short of that ultimate stoichiometric capacity and so is still reaction rate dependent, just less so than the Short Reaction Time Capacity Test.

[5] = 20 g test, Eq/test Triazine 0.068, GIDAc 0.185, GIDA 0.076
[6] = 20 g test, Triazine 7.50 g + 12.50 g water, GIDAc 13.00 g as GID + 7.00 g MeOH, GIDA 6.68 g as GID, 3.32 g water, 8.00 g MeOH, 2.00 g BuOH
[7] = 20 g test, Eq/test Triazine 0.068, GIDAc 0.157, GIDA 0.076 (7.50 g MeOH, 2.50 g BuOH)
[8] = 20 g test, Triazine 7.50 g + 12.50 g water, GIDAc 11.00 g as GID, 6.00 g MeOH, 3.00 g BuOH, GIDA 6.68 g as GID, 3.32 g water, 7.50 g MeOH, 2.50 g BuOH

## CCCCC(CC)CO (stereo not shown) [2EHOH, 2-Ethylhexanol]
[1]
  LogP: 2.8

## OCCOCCO [DEG, Diethylene Glycol]
[2]
  Solution Homogeneity: Fail
[2]; listed as diethylene glycol
  Solution Homogeneity: do not work
[1]
  LogP: −1.5

## OCCO [EG, Ethylene Glycol]
[2]
  Solution Homogeneity: Fail
[2]; listed as Ethylene glycol
  Solution Homogeneity: do not work
[1]
  LogP: −1.7

## CC(C)N=CC=NC(C)C [GID, N,N′-di(propan-2-yl)ethane-1,2-diimine]
[3]
  contribution to the BT capacity (coefficient of best fit equation): 102 minutes per equivalent
  contribution to the FD capacity (coefficient of best fit equation): 92 minutes per equivalent
[1]
  LogP: 2.3

## O [H2O, Water]
[1]
  LogP: −1.4

## CC(=O)CC(C)C [MIBK, methyl isobutyl ketone]
[3]
  contribution to the BT capacity (coefficient of best fit equation): 601 minutes per equivalent
  contribution to the FD capacity (coefficient of best fit equation): 515 minutes per equivalent

## CO [MeOH, Methanol]
[1]
  LogP: −0.7

## CC(O)CO (stereo not shown) [PG, Propylene Glycol]
[1]
  LogP: −1.3

## OCCN1CN(CCO)CN(CCO)C1 [Triazine, reference compound]
[4]; [5]
  Min/Eq BT: 994 Min/Eq
  Min/Eq FD: 965 Min/Eq
[4]; [6]
  Min to BT: 68 min
  Min to FD: 66 min
[4]; Graph 1 (FIG. 3)
  molar capacity at long reaction times (comparison, accounting for molar concentration): greater molar capacity than GIDAc at long reaction times
[3]; [7]
  Min/Eq BT: 380 Min/Eq
  Min/Eq FD: 365 Min/Eq
[3]; [8]
  Min to BT: 26 min
  Min to FD: 25 min
[3]; Graph 1 (FIG. 3)
  molar capacity at short reaction times (comparison, accounting for molar concentration): lower molar capacity at short reaction times

## CCCCCCCO [n-C7OH, n-Heptanol]
[1]
  LogP: 2.5

## CCCCCCCCO [n-C8OH, n-Octanol]
[1]
  LogP: 3.0

## Hexylene Glycol [HG]
[1]
  LogP: 0.0
